Experimental data from PubChem BioAssay (NCI).
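Five compound concentrations were applied to cells in 96-well plates for 48 hours; endpoints were derived by simple linear interpolation of the resulting dose-response curve. GI50 is the concentration that inhibits growth by half. At the TGI there is no net growth.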

System: MDA-MB-468 breast
Assay: DTP human tumour cell line panel, 48 h

Structure (SMILES) | GI50 [nM] | TGI [nM]
CCN(CC)CCn1c(=O)c2cc(OC)c(OC)cc2c2ccc3cc4c(cc3c21)OCO4 | 840 | 19800
CCN1C(=O)N(CC)C2C1NN=c1s/c(=C\c3ccc(C(F)(F)F)cc3)c(=O)n12 (stereo not given) | 318 | 24200
O=c1cc(-c2ccccc2)oc2c1ccc1ccccc12 | 23600 | 95400
O=[N+]([O-])c1ccc(N=Nc2c(Cl)cc(O)cc2Cl)cc1 | 772 | 5810
C/C(CC(C)(C)N1CC1)=N\NC(=O)Nc1cccc2ccccc12 | 1920 | 4610
CCCCc1n(Cc2ccc3ccccc3n2)cc[n+]1Cc1ccc2ccccc2n1 | 244 | 1640
C#Cc1cccc(NC(=O)c2cccc(NC(=O)CCl)c2)c1 | 17400 | 52700
COc1ccc([C@@H]2[C@@H](O)C(=O)N2c2cc(OC)c(OC)c(OC)c2)cc1Cl | < 14.1 | > 35900
O=C(c1ccccc1)C1OC1C(=O)c1ccccc1 (stereo not given) | 1710 | 6720
COc1ccc(-c2cc(-c3ccc(OC)cc3)nc(NCCCNc3ccnc4cc(Cl)ccc34)n2)cc1 | 1270 | 2790
COc1ccc(CNCCCN2C(=O)c3ccc4c5c(ccc(c35)C2=O)C(=O)N(CCCNCc2ccc(OC)c(OC)c2OC)C4=O)c(OC)c1OC | 79.3 | 151
CCOC(=O)c1c2c(n3ccc(NC(=O)CCN4CCCCC4)cc13)C(=O)c1ncccc1C2=O | 1760 | 3390
O=c1oc2ccc(Cl)cc2c(=O)n1-c1ccc(F)cc1F | 1980 | 5710
COc1cc2c(cc1O)c(=O)n(CCN(C)C)c1c3cc4c(cc3ncc21)OCO4 | < 10 | 14
CC(C)=Cc1cccc2[nH]c(O)c(N=Nc3ccc(S(N)(=O)=O)cc3)c12 | > 5220 | > 25000
Cc1c[nH]c(=O)n(Cc2nnc(CCC(=O)c3nc4ccccc4[nH]3)o2)c1=O | 156 | 553

Structure (SMILES) | GI50 [nM] | TGI [nM]
COc1ccc2nc3c(cc2c1)C(=O)CC(c1ccccc1)C3 (stereo not given) | 4080 | > 100000
CCCS(=O)(=O)Nc1cccc(Nc2ncnc3cc(NC(=O)CCl)ccc23)c1Cl | 3160 | 8520
Cc1ccc(-c2nc(/C=N/Nc3cc(C)nc4ccc(Br)cc34)c(C)o2)cc1 | 1950 | 3870
CC[C@]12C=CCN3CC[C@@]4(c5ccc(OC)cc5N(C)[C@H]4[C@@](O)(C(=O)OC)[C@@H]1OC(=O)CCC(=O)O[C@H]1CC[C@H]4[C@@H]5CC[C@H]6CC(=O)CC[C@]6(C)[C@H]5CC[C@]14C)[C@@H]32 | 3130 | > 100000
O=C(CCCC(=O)N/N=C/c1cc(Cl)ccc1O)N/N=C\c1cc(Cl)ccc1O | 2220 | 9300
O=C1/C(=C/c2ccc(F)cc2)CN(C(=O)C(Cl)Cl)C/C1=C\c1ccc(F)cc1 | 203 | 480
O=C1c2ccccc2C(=O)c2c1oc1c2c(=O)[nH]c2ccc(Cl)cc21 | 249 | 868
O=C1c2cc3c(cc2-c2c1c1ccc(F)cc1c(=O)n2C[C@H](O)[C@H](O)[C@H](O)CO)OCO3 | 64.6 | 213
CCn1c(SCC(=O)Nc2cc(C(F)(F)F)ccc2Cl)nc2ccccc2c1=O | 14000 | > 100000
CC[C@H]1CCC/C=C/[C@@H]2C[C@H](O)C[C@H]2[C@H](O)/C=C/C(=O)O1 | – | 16.7
COc1cc(NS(C)(=O)=O)ccc1Cc1c2ccccc2nc2ccccc12 | 310 | 1810
CC(=O)Nc1ccc(OC(C)=O)cc1 | < 10 | < 101
Fc1ccc(-c2ncn(CCCN3CCOCC3)c2-c2ccncc2)cc1 | > 25000 | > 25000
CCOC(=O)Nc1ccc2c(c1)C(=O)N(CC)c1ccccc1O2 | 201 | –
CCc1cccc(NC(=O)Nc2ccc(Oc3ccc4nc(NC(=O)OC)[nH]c4c3)cc2)c1 | 75.1 | 2960
